{
  "source": "patent US12673921B2",
  "about": "“Substituted fluorine-containing imidazole salt compound, preparation method therefor, pharmaceutical composition thereof and use thereof” (XIAMEN VIVOHEALTHS TECHNOLOGY CO., LTD., priority 2019, dated 2026)",
  "key": {"[1]": {"system": "C57BL/6J male mice", "experiment": "Sugar tolerance test of mice (ip-GTT)", "assay_type": "in vivo, mouse", "conditions": "intragastric 0.2, 2 mg/kg, glucose 1 g/kg i.p. after 2 h"}, "[2]": {"experiment": "Liver microsome stability test, Beagle dog liver microsome", "assay_type": "in vitro ADME", "conditions": "microsomes, 0.5 mg protein/mL microsome, 1 μM compound, 37° C., NADPH, read-out: DLM 0.5 T1/2 (min), half life in Beagle dog liver microsome", "protocol": "(§1) The experimental steps were as follows: • 1. Preparation of working solution • 1.1 Intermediate solution: 5 μL of a 10 mM stock solution of sample or control was taken out, and diluted with 495 μl of methanol (Conc.: 100 μM, 99% MeOH). • 1.2 Working solution: 50 μL of the intermediate solution was taken out, and diluted with 450 μL of a 100 mM potassium phosphate buffer (Conc.: 10 μM, 9.9% MeOH). • 2. Preparation of NADPH cofactor\n(§2) An appropriate amount of NADPH powder was weighed, and dissolved with a MgCl2 (10 mM) solution. • 3. Liver microsome • 3.1 Liver microsome information\n(§3) • 3.2 Preparation: a microsome working solution with an appropriate concentration was prepared by using a 100 mM potassium phosphate buffer. • 4. Stop solution\n(§4) Glacial acetonitrile, comprising 100 ng/ml Tolbutamide and 100 ng/ml Labetalol as internal standards. • 5. Experimental procedures • 5.1 10 μL of the working solution of sample or control was added per well to all plates (T0, T5, T10, T20, T30, T60, NCF60), except for the blank group; • 5.2 80 μL of the working solution of microsome was added per well to all plates, followed by incubation for 10 min at 37° C.; • 5.3 10 μL of a 100 mM potassium phosphate buffer was added per well to NCF60, followed by incubation at 37° C. and starting timer 1;\n(§5) • 5.4 After preheating, 10 μL of NADPH was added per well to each plate, and reaction was started;\n(§6) Final concentration of each component in the incubation medium:\n(§7) • 5.6 300 μL of the stop solution was added per well to stop the reaction; • 5.7 The system was shaken for about 10 min; • 5.8 The samples were centrifuged (4000 rpm) at 4° C. for 20 min; • 5.9 To 8 new 96-well plates, 300 μL of HPLC water was added per well, then 100 μL of the supernatant was added, mixed and subjected to LC/MS/MS.\n(§8) In the above table, HLM 0.5 T1/2 (min) refers to half life (min) of compounds in human liver microsome, DLM 0.5 T1/2 (min) refers to half life (min) of compounds in Beagle dog liver microsome."}, "[3]": {"system": "AMPK", "experiment": "AMPK activity assay at cell level (western blot of p-AMPKα and p-ACC in MEFs)", "assay_type": "cell-based, mouse", "conditions": "MEF cells, compound 10 nM, 2 h; multiple of the ratio relative to positive control AICAR (3 mM); band brightness by Image J", "protocol": "The ability of compounds to activate AMPK in mouse embryonic fibroblasts (MEFs) was determined, which could be specifically carried out by detecting the phosphorylation level (p-AMPKα) of threonine at the 172nd position of AMPK and the phosphorylation level (p-ACC) of serine at the 79th position of the susbtrate ACC1/ACC2 of AMPK (FIG. 1 and Table I) by western blot.\nThe specific method was as follows: • (1) MEFs with loxP insertion sequences or of wild-type were plated in a 6-well plate and cultured in DMEM containing 10% serum. If a gene needed to be knocked out at this time, when the density of the corresponding MEFs with loxP insertion sequences reached about 30%, an adenovirus capable of expressing cre should be added to the culture well followed by further culture for more than 24 h; • (2) When the cell density was close to 90%, the cells were provided with fresh DMEM, at the same time, a compound (final concentration 10 nM) was added to the cells, followed by culture for 2 h, with an equal volume of DMSO as the negative control, and the cells treated with the addition of AICAR (3 mM) as the positive control; • (3) After sucking up the culture solution, the cells were lysed with 200 μL of a cell lysate (its formulation was given below), then the cells were scraped from the culture dish, ultrasonicated, and subjected to low temperature centrifugation at 20000 g for 10 min; • (4) The supernatant and an equal volume of 2*SDS solution (its formulation was given below) were mixed, and subjected to SDS-PAGE in a concentration of 8%, then the protein was transferred to PVDF membrane; each PVDF membrane was blocked with 25 mL of skim milk for 1 h, and then rinsed with TBST buffer (its formulation was given below) 3 times for 10 min each time; • (5) AMPKα subunit primary antibody (Cell Signaling Technology, #2532), primary antibody of phosphothreonine at the 172nd position of AMPK (Cell Signaling Technology, #2535), ACC primary antibody (Cell Signaling Technology, #3662), or primary antibody of phosphoserine at the 79th position of ACC (Cell Signaling Technology, #3661) was diluted in a ratio of 1:1000 with a primary antibody dilution (its formulation was given below), reacted with the PVDF membrane at room temperature for 12 h, and then rinsed 3 times with TBST buffer; • (6) A 1:1000 dilution of HRP-conjugated goat anti-rabbit secondary antibody (Jackson ImmunoResearch, 111-035-003) was added, reacted at room temperature for 1 h, and then rinsed 3 times with TBST buffer; • (7) The PVDF membrane was dried, reacted in an ECL mixture (WesternBright ECL HRP substrate, Advansta) and subjected to exposure with medical X-ray, developed, finally rinsed, dried, and then scanned to obtain data related to AMPK activation.\nThe formulations of reagents used were: • Cell lysate: 20 mM Tris-base, pH 7.5, 150 mM NaCl, 1 mM EDTA, 1 mM EGTA, 2.5 mM Sodium pyrophosphate, 1 mM β-glycerolphosphate, 1% Triton X-100 (v/v); • 2*SDS solution: 20% Glycerol (v/v), 4% SDS (m/v), 10% β-mecaptoethanol (v/v), 0.01% Bromophenol blue (m/v); • TBST buffer: 4.84% Tris-base (m/v), 8% NaCl (m/v), 0.1% Tween-20 (v/v); • Primary antibody dilution: TBST buffer containing 5% BSA (v/v)."}, "[4]": {"experiment": "Liver microsome stability test, human liver microsome", "assay_type": "in vitro ADME", "conditions": "microsomes, 0.5 mg protein/mL microsome, 1 μM compound, 37° C., NADPH, read-out: HLM 0.5 T1/2 (min), half life in human liver microsome", "protocol": "as §1, §2, §3, §4, §5, §6, §7, §8"}},
  "note": "Entries after “also recorded” stand apart in the source; their conditions may differ.",
  "data": [
    {"compound": "Cc1n(CCCCCCCCCCCC(F)(F)C(F)(F)C(F)(F)C(F)(F)C(F)(F)F)cc[n+]1Cc1c(Cl)cccc1Cl.[Cl-]", "note": "[IB-33]", "values": [
      {"measurement": "blood sugar in sugar tolerance test (ip-GTT)", "setting": "[1]", "result": "significantly lower blood sugar; also recorded: effective in lowering blood sugar"},
      {"measurement": "half-life at 1 μM", "setting": "[2]", "result": "> 145", "unit": "min"},
      {"measurement": "Degree of AMPK activation, p-ACC/ACC", "setting": "[3]", "result": 0.94},
      {"measurement": "Degree of AMPK activation, p-AMPKα/AMPK", "setting": "[3]", "result": 0.54},
      {"measurement": "half-life at 1 μM", "setting": "[4]", "result": "> 145", "unit": "min"}
    ]}
  ]
}
